Test results as given in publication PMC7048316, “Yeast filamentation signaling is connected to a specific substrate translocation mechanism of the Mep2 transceptor” (PLoS Genetics, 2020).

Legend:
Mep2 (ScMep2) = target: T1, Mep2 (ScMep2) (Saccharomyces cerevisiae, UniProt P41948); assay type: cell-based; conditions: 3 mM ammonium; pH 5.5; labelled compound
T1 construct: untagged full-length Mep2 in pOO2, cRNA-injected Xenopus oocytes; family adopts a trimeric fold

[1] = substrate: N; experiment: cells, lysate or membranes; conditions: -100 mV (voltage-dependent), pH 5.5, NH4Cl

T1 sequence (P41948 whole entry): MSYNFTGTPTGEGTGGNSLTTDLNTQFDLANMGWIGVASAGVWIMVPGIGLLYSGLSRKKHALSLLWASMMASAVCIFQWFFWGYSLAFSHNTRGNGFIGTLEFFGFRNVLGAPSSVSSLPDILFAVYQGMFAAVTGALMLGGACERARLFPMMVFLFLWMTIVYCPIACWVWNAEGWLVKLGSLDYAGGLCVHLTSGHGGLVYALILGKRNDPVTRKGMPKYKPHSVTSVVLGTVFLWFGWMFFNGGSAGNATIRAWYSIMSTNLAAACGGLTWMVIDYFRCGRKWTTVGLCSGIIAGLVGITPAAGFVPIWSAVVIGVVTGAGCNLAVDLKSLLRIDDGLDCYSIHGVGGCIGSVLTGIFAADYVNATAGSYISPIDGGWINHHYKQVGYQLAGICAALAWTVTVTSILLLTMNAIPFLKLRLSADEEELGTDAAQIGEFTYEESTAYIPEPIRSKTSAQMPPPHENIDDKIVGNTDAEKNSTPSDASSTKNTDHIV

Row | Molecule | 15N-ammonium uptake into Xenopus oocytes, isotope ratio mass spectrometry (Mep2 (ScMep2)) | Km [1]
1 | N [ammonium] | Mep2 and its Mep2^S457D variant were functional in oocytes, enabling substrate transport | 
2 | Mep1 (ScMep1) (Saccharomyces cerevisiae S288C) (protein) MESRTTGPLTTETYDGPTVAFMILGAALVFFMVPGLGFLYSGLARRKSALALIWVVLMATLVGILQWYFWGYSLAFSKSAPNNKFIGNLDSFGFRNVYGKKFDEDAYPELAYATFQMMFSCVNLSIIAGATAERGRLLPHMVFLFILATIGYCPVTYWIWSPGGWAYQWGVLDWAGGGNIEILSAVSGFVYSWFLGKRNEKLLINFRPHNVSLVTLGTSILWFGWLLFNSASSLSPNLRSVYAFMNTCLSAITGGMTWCLLDYRSEKKWSTVGLCSGIISGLVAATPSSGCITLYGSLIQGIVAGVVCNFATKLKYYAKVDDAMDILAEHGVAGVIGLIFNALFGADWVIGMDGTTEHEGGWVTHNYKQMYKQIAYIAASIGYTAAVTAIICFVLGYIPGMRLRISEEAEEAGMDEDQIGEFAYDYVEVRRDYYLWGVDEDSQRSDVNHRVNNAHLAAERSSSGTNSSSDGNGEMIQSEKILPIHQEDPANR |  | 258 µM
